Reference: patent publication US9611248B2, “Chemical compounds” (Syngenta Participations AG, priority 2013, dated 2017)

Test system: a variety of test species
Assay: Post-emergence herbicidal activity
Format: in vivo
Design: key to ABUTH (Abutilon theophrasti) damage score / AMARE (Amaranthus retroflexus) damage score / ALOMY (Alopecurus myosuroides) damage score / ECHCG (Echinochloa crus-galli) damage score / ZEAMX (Zea mays) damage score / SOLNI (Solanum nigrum) damage score: 0 = no damage to plant, 5 = total damage to plant
Conditions: rate 1000 g/ha, evaluated after 13 days
Experimental: Seeds of a variety of test species were sown in standard soil in pots. After 8 days cultivation (post-emergence) under controlled conditions in a glasshouse (at 24/16° C., day/night; 14 hours light; 65% humidity), the plants were sprayed with an aqueous spray solution derived from the formulation of the technical active ingredient in acetone/water (50:50) solution containing 0.5% Tween 20 (polyoxyethelyene sorbitan monolaurate, CAS RN 9005-64-5). The test plants were then grown in a glasshouse under controlled conditions (at 24/16° C., day/night; 14 hours light; 65% humidity) and watered twice daily. After 13 days, the test was evaluated (5=total damage to plant; 0=no damage to plant, NC=not captured).

| Structure (SMILES) | ABUTH (Abutilon theophrasti) damage score | ALOMY (Alopecurus myosuroides) damage score | AMARE (Amaranthus retroflexus) damage score | ECHCG (Echinochloa crus-galli) damage score | SETFA (Setaria faberi) damage score | ZEAMX (Zea mays) damage score |
| --- | --- | --- | --- | --- | --- | --- |
| COC1=C(C)C(=O)N(c2cc(C(C)C)c(OC)nn2)C1O (stereo not drawn) [BD5] | 5 | 5 | 5 | 5 | 5 | 3 |
| CCO/C=C\c1cnc(N2C(=O)C(C)=C(Cl)C2O)cc1C(F)(F)F (stereo not drawn) [AA1] | 5 | 3 | 5 | 5 | 5 | 1 |
| C=Cc1cnc(N2C(=O)C(C)=C(OC)C2O)cc1C(F)(F)F (stereo not drawn) [AD27] | 5 | 4 | 5 | 5 | 4 | 2 |
| COC1=C(C)C(=O)N(c2cc(C)c(-c3ccc(C)c([N+](=O)[O-])c3)cn2)C1O (stereo not drawn) [AD119] | 2 | 2 | 5 | 1 | 1 | 0 |
| COC1=C(C)C(=O)N(c2cc(C(F)(F)F)c(-c3ccc(S(C)(=O)=O)cc3)cn2)C1O (stereo not drawn) [AD125] | 4 | 4 | 5 | 4 | 4 | 1 |
| COC1=C(C)C(=O)N(c2cc(C)c(-c3ccccc3OC)cn2)C1O (stereo not drawn) [AD110] | 5 | 2 | 5 | 1 | 2 | 0 |
| COC1=C(C)C(=O)N(c2nccc(C(F)(F)F)c2Br)C1O (stereo not drawn) [AD25] | 1 | 1 | 2 | 1 | 2 | 1 |
| CC1=C(Br)C(O)N(c2cc(C(F)(F)F)ccn2)C1=O (stereo not drawn) [AB1] | 3 | 2 | 5 | 3 | 4 | 0 |
| CCCC1=C(Cl)C(O)N(c2cc(C(F)(F)F)ccn2)C1=O (stereo not drawn) [AA40] | 2 | 2 | 4 | 4 | 1 | 1 |
| COC1=C(C)C(=O)N(c2cc(C)c(-c3ccc(F)cc3F)cn2)C1O (stereo not drawn) [AD122] | 5 | 3 | 5 | 4 | 4 | 0 |
| COC1=C(C)C(=O)N(c2cc(C)c(-c3ccc(C#N)cc3)cn2)C1O (stereo not drawn) [AD111] | 5 | 2 | 5 | 1 | 4 | 1 |
| COC1=C(C)C(=O)N(c2cc(C(C)(C)CCl)c(Cl)nn2)C1O (stereo not drawn) [BD4] | 5 | 4 | 4 | 4 | 5 | 0 |
| COC1=C(C)C(=O)N(c2cc(C)c(S(=O)(=O)N3CCOCC3)cn2)C1O (stereo not drawn) [AD91] | 0 | 0 | 2 | 0 | 0 | 2 |
| C=CCCOc1cnc(N2C(=O)C(C)=C(OC)C2O)cc1C(F)(F)F (stereo not drawn) [AD73] | 5 | 4 | 5 | 4 | 5 | 1 |
